Experimental data as given in patent publication US20240246931A1, “COMPOUNDS AS PD1/PD-L1 INHIBITORS AND METHODS THEREOF” (JUBILANT PRODEL LLC, priority 2021, published 2024).

Target: T1, PD-1/PD-L1 interaction (Homo sapiens, UniProt Q9NZQ7)
T1 construct: purchased CisBio 63ADK000CPAPEG
Assay: PD-1/PD-L1 HTRF binding assay (CisBio kit)
Conditions: HTRF PD1/PD-L1 inhibition assay
Description: PD-L1 Enzyme Assay: Homogenous Time-Resolved Fluorescence (HTRF) Binding Assay
All binding studies were performed using PD-1/PD-L1 Binding Assay Kit from CisBio (Catalog #63ADK000CPAPEG), according to the manufacturer's protocol. The interaction between Tag1-PD-1 and […] was detected by anti-Tag1-Eu^3+ (HTRF donor) and anti-Tag2-XL665 (HTRF acceptor). When the donor and acceptor antibodies were brought to close proximity due to PD-1 and PD-L1 binding, excitation of the donor antibody triggered fluorescent resonance energy transfer (FRET) towards the acceptor antibody, which in turn emitted specifically at 665 nm. This specific signal is positively proportional to PD-1/PD-L1 interaction. The compounds blocking PD-1/PD-L1 interaction will cause a reduction in HTRF signal. The necessary reagents were mixed in the following order: 2 μL compounds (or diluents buffer), 4 μL PD-L1 protein, 4 μL PD-1 protein. After an incubation of 15 minutes, 5 μL of anti-Tag1-Eu^3+ and 5 μL of anti-Tag2-XL665 were added. The plate was sealed and incubated at room temperature for 1 h. The fluorescence emission was read at two different wavelengths (665 nm and 620 nm) on a BMG PheraStar® multi-plate reader.
Results were calculated from the 665 nm and 620 nm fluorescence signal and expressed in HTRF ratio=(665 nm/620 nm)×10^4.
Compounds having IC50<100 nM are designated as “A”; 100-500 nM are designated as “B”; and >500 nM are designated as “C” respectively.

T1 sequence (Q9NZQ7 19-238 limits assumed): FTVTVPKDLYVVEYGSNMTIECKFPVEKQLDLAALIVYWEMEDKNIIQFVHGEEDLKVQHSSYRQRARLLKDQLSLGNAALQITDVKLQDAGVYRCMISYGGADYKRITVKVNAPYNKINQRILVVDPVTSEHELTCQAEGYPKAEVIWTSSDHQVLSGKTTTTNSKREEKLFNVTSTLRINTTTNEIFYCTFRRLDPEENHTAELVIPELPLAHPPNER

| Structure (SMILES) | IC50 [nM] |
| --- | --- |
| Cc1c(COc2cc(OCc3cncc(C#N)c3)c(CN3CCC3CO)c3c2CCC3)cccc1-c1ccc(N2CCOCC2)nc1 (stereo not drawn) [Example 61, 5-(((4-((2-(hydroxymethyl)azetidin-1-yl)methyl)-7-((2-methyl-3-(6-morpholinopyridin-3-yl)benzyl)oxy)-2,3-dihydro-1H-inden-5-yl)oxy)methyl)nicotinonitrile] | > 500 |
| Cc1c(COc2cc(OCc3cncc(C#N)c3)c(CN3CCC3CO)c3c2CCC3)cccc1-c1ccncc1 (stereo not drawn) [Example 70, 5-(((4-((2-(hydroxymethyl)azetidin-1-yl)methyl)-7-((2-methyl-3-(pyridin-4-yl)benzyl)oxy)-2,3-dihydro-1H-inden-5-yl)oxy)methyl)nicotinonitrile] | > 500 |
| Cc1c(COc2cc(OCc3cncc(C#N)c3)c(C(=O)NC3CCN(C)CC3)c3c2CCC3)cccc1-c1ccccc1 [Example 49, 5-((5-cyanopyridin-3-yl)methoxy)-7-((2-methyl-[1,1′-biphenyl]-3-yl)methoxy)-N-(1-methylpiperidin-4-yl)-2,3-dihydro-1H-indene-4-carboxamide] | < 100 |
| Cc1c(COc2cc(OCc3cncc(C#N)c3)c(CN3CC[C@H]3CO)c3c2CCC3)cccc1-c1cnc2[nH]ccc2c1 [Example 72, (S)-5-(((4-((2-(hydroxymethyl)azetidin-1-yl)methyl)-7-((2-methyl-3-(1H-pyrrolo[2,3-b]pyridin-5-yl)benzyl)oxy)-2,3-dihydro-1H-inden-5-yl)oxy)methyl)nicotinonitrile] | 100 to 500 |
| Cc1c(COc2cc(OCc3cncc(C#N)c3)c(CN3CCC3CO)c3c2CCC3)cccc1-c1ccc(F)cc1 (stereo not drawn) [Example 76, 5-(((7-((4′-fluoro-2-methyl-[1,1′-biphenyl]-3-yl)methoxy)-4-((2-(hydroxymethyl)azetidin-1-yl)methyl)-2,3-dihydro-1H-inden-5-yl)oxy)methyl)nicotinonitrile] | 100 to 500 |
| Cc1c(COc2cc(OCc3cncc(C#N)c3)c(CN3CCC3CO)c3c2CCC3)cccc1-c1ccc(OC(F)(F)F)cc1 (stereo not drawn) [Example 66, 5-(((4-((2-(hydroxymethyl)azetidin-1-yl)methyl)-7-((2-methyl-4′-(trifluoromethoxy)-[1,1′-biphenyl]-3-yl)methoxy)-2,3-dihydro-1H-inden-5-yl)oxy)methyl)nicotinonitrile] | > 500 |
| Cc1c(COc2cc(OCc3cncc(C#N)c3)c(C(=O)N3CCC[C@H]3CO)c3c2CCC3)cccc1-c1ccccc1 [Example 50, (S)-5-(((4-(2-(hydroxymethyl)pyrrolidine-1-carbonyl)-7-((2-methyl-[1,1′-biphenyl]-3-yl)methoxy)-2,3-dihydro-1H-inden-5-yl)oxy)methyl)nicotinonitrile] | 100 to 500 |
| Cc1c(COc2cc(OCc3cncc(C#N)c3)c(CN3CCC3CO)c3c2CCC3)cccc1-c1ccc(O)cc1 (stereo not drawn) [Example 55, 5-(((7-((4′-hydroxy-2-methyl-[1,1′-biphenyl]-3-yl)methoxy)-4-((2-(hydroxymethyl)azetidin-1-yl)methyl)-2,3-dihydro-1H-inden-5-yl)oxy)methyl)nicotinonitrile] | 100 to 500 |
| Cc1c(COc2cc(OCc3cncc(C#N)c3)c(CN3CCC[C@H](CO)C3)c3c2CCC3)cccc1-c1ccccc1 [Example 16, (S)-5-(((4-((3-(hydroxymethyl)piperidin-1-yl)methyl)-7-((2-methyl-[1,1′-biphenyl]-3-yl)methoxy)-2,3-dihydro-1H-inden-5-yl)oxy)methyl)nicotinonitrile] | < 100 |
| Cc1c(Br)cccc1COc1cc(OCc2cncc(C#N)c2)c(CN2CCC2CO)c2c1CCC2 (stereo not drawn) [Example 54, 5-(((7-((3-bromo-2-methylbenzyl)oxy)-4-((2-(hydroxymethyl)azetidin-1-yl)methyl)-2,3-dihydro-1H-inden-5-yl)oxy)methyl)nicotinonitrile] | > 500 |
| Cc1c(COc2cc(OCc3cncc(C#N)c3)c(CN3CC(CO)C3)c3c2CCC3)cccc1-c1ccccc1 [Example 14, 5-(((4-((3-(hydroxymethyl)azetidin-1-yl)methyl)-7-((2-methyl-[1,1′-biphenyl]-3-yl)methoxy)-2,3-dihydro-1H-inden-5-yl)oxy)methyl)nicotinonitrile] | < 100 |
| Cc1c(COc2cc(OCc3cncc(C#N)c3)c(CN3CCCCC3(CO)CO)c3c2CCC3)cccc1-c1ccccc1 [Example 22, 5-(((4-((2,2-bis(hydroxymethyl)piperidin-1-yl)methyl)-7-((2-methyl-[1,1′-biphenyl]-3-yl)methoxy)-2,3-dihydro-1H-inden-5-yl)oxy)methyl)nicotinonitrile 2,2,2-trifluoroacetate] | < 100 |
| Cc1c(COc2cc(OCc3cncc(C#N)c3)c(CN3CCC[C@@H](CO)C3)c3c2CCC3)cccc1-c1ccccc1 [Example 21, (R)-5-(((4-((3-(hydroxymethyl)piperidin-1-yl)methyl)-7-((2-methyl-[1,1′-biphenyl]-3-yl)methoxy)-2,3-dihydro-1H-inden-5-yl)oxy)methyl)nicotinonitrile 2,2,2-trifluoroacetate] | < 100 |
| Cc1c(COc2cc(OCc3cncc(C#N)c3)c(CN3CCCCCC3CO)c3c2CCC3)cccc1-c1ccccc1 (stereo not drawn) [Example 20, 5-(((4-((2-(hydroxymethyl)azepan-1-yl)methyl)-7-((2-methyl-[1,1′-biphenyl]-3-yl)methoxy)-2,3-dihydro-1H-inden-5-yl)oxy)methyl)nicotinonitrile] | < 100 |
| Cc1c(COc2cc(OCc3cncc(C#N)c3)c(CN3CC[C@@H](CO)C3)c3c2CCC3)cccc1-c1ccccc1 [Example 15, (R)-5-(((4-((3-(hydroxymethyl)pyrrolidin-1-yl)methyl)-7-((2-methyl-[1,1′-biphenyl]-3-yl)methoxy)-2,3-dihydro-1H-inden-5-yl)oxy)methyl)nicotinonitrile] | < 100 |
| Cc1c(COc2cc(OCc3cncc(C#N)c3)c(CN3CCCC3CN)c3c2CCC3)cccc1-c1ccccc1 (stereo not drawn) [Example 53, 5-(((4-((2-(aminomethyl)pyrrolidin-1-yl)methyl)-7-((2-methyl-[1,1′-biphenyl]-3-yl)methoxy)-2,3-dihydro-1H-inden-5-yl)oxy)methyl)nicotinonitrile] | < 100 |
| Cc1c(COc2cc(OCc3cncc(C#N)c3)c(CN3CC4(CC4)C[C@H]3CO)c3c2CCC3)cccc1-c1ccc(F)cc1 [Example 47, (S)-5-(((7-((4′-fluoro-2-methyl-[1,1′-biphenyl]-3-yl)methoxy)-4-((6-(hydroxymethyl)-5-azaspiro[2.4]heptan-5-yl)methyl)-2,3-dihydro-1H-inden-5-yl)oxy)methyl)nicotinonitrile] | 100 to 500 |
| Cc1c(COc2cc(OCc3cn(C)cn3)c(CN3CCC3CO)c3c2CCC3)cccc1-c1ccccc1 (stereo not drawn) [Example 41, (1-((5-((1-methyl-1H-imidazol-4-yl)methoxy)-7-((2-methyl-[1,1′-biphenyl]-3-yl)methoxy)-2,3-dihydro-1H-inden-4-yl)methyl)azetidin-2-yl)methanol] | 100 to 500 |
| Cc1c(COc2cc(OCc3cncc(C#N)c3)c(CN3CCC3CO)c3c2CCC3)cccc1-c1cnc2[nH]ccc2c1 (stereo not drawn) [Example 74, 5-(((4-((2-(hydroxymethyl)azetidin-1-yl)methyl)-7-((2-methyl-3-(1H-pyrrolo[2,3-b]pyridin-5-yl)benzyl)oxy)-2,3-dihydro-1H-inden-5-yl)oxy)methyl)nicotinonitrile 2,2,2-trifluoroacetate] | > 500 |
| Cc1c(COc2cc(OCc3cncc(C#N)c3)c(CN3CCC3CO)c3c2CCC3)cccc1-c1cn[nH]c1 (stereo not drawn) [Example 57, 5-(((4-((2-(hydroxymethyl)azetidin-1-yl)methyl)-7-((2-methyl-3-(1H-pyrazol-4-yl)benzyl)oxy)-2,3-dihydro-1H-inden-5-yl)oxy)methyl)nicotinonitrile] | > 500 |
| Cc1c(COc2cc(Oc3ccccc3)c(CN3CCC3CO)c3c2CCC3)cccc1-c1ccccc1 (stereo not drawn) [Example 78, (1-((7-((2-methyl-[1,1′-biphenyl]-3-yl)methoxy)-5-phenoxy-2,3-dihydro-1H-inden-4-yl)methyl)azetidin-2-yl)methanol] | > 500 |
| Cc1c(COc2cc(OCc3cocn3)c(CN3CCC3CO)c3c2CCC3)cccc1-c1ccccc1 (stereo not drawn) [Example 43, (1-((7-((2-methyl-[1,1′-biphenyl]-3-yl)methoxy)-5-(oxazol-4-ylmethoxy)-2,3-dihydro-1H-inden-4-yl)methyl)azetidin-2-yl)methanol] | 100 to 500 |
| COc1ccc(-c2cccc(COc3cc(OCc4cncc(C#N)c4)c(CN4CCC4CO)c4c3CCC4)c2C)cc1 (stereo not drawn) [Example 63, 5-(((4-((2-(hydroxymethyl)azetidin-1-yl)methyl)-7-((4′-methoxy-2-methyl-[1,1′-biphenyl]-3-yl)methoxy)-2,3-dihydro-1H-inden-5-yl)oxy)methyl)nicotinonitrile] | > 500 |
| Cc1c(COc2cc(OCc3cncc(C#N)c3)c(CN3CCC3CO)c3c2CCC3)cccc1-c1cccc(F)c1 (stereo not drawn) [Example 64, 5-(((7-((3′-fluoro-2-methyl-[1,1′-biphenyl]-3-yl)methoxy)-4-((2-(hydroxymethyl)azetidin-1-yl)methyl)-2,3-dihydro-1H-inden-5-yl)oxy)methyl)nicotinonitrile] | < 100 |
